Consider 29 compounds from patent publication US20240131028A1, “CHEMOVACCINATION AGAINST PLASMODIUM INFECTION WITH SELECTIVE PLASMEPSIN X INHIBITORS” (Merck Sharp & Dohme LLC, priority 2021, published 2024).

pEC50: −log10 of the molar value.

One assay concerns ring stage parasites (Pf). Kind of assay: Parasite lactate dehydrogenase (LDH) growth assay (Parasite Assay, PfLDH Assay). The assay is classed as cell-based, P. falciparum. The settings on record: Plasmodium falciparum, 72 h, Table 3; 72 hours growth, LDH readout; read-out: EC50.
As to `CC1(C)CC(=O)N(C[C@H]2C[C@@H]2C(=O)NC2CC(C)(C)Oc3ccc(OC(F)(F)F)cc32)C(=N)N1` (some centres unmarked) [Example 125A], the pEC50 (in general, −log10 of the EC50, conventionally taken in molar units) is 6.64.

With `COCC[C@H]([C@H]1C[C@@H]1C(=O)NC1CC(C)(C)Oc2ccc(OC(F)(F)F)cc21)N1C(=N)NC(C)(C)CC1=O` (some centres unmarked) [Example 126A], the negative logarithm of the EC50 (pEC50) is 8.33.

With `Cc1ccc2c(c1)[C@@H](NC(=O)[C@H]1C[C@@H]1CN1C(=N)NC(C)(C)CC1=O)CC(C)(C)O2` [Example 128], the pEC50 was 6.55.

As to `CC[C@]1(C)CC(=O)N([C@H](CCOC)[C@H]2C[C@@H]2C(=O)NC2CC(C)(C)Oc3ccc(OC(F)(F)F)cc32)C(=N)N1` (some centres unmarked) [Example 129A], the pEC50 was 8.89.

Turning to `COCC[C@H]([C@H]1C[C@@H]1C(=O)NC1CC2(CCC2)Oc2ccccc21)N1C(=N)NC(C)(C)CC1=O` (some centres unmarked) [Example 131A], the pEC50 is 8.17.

`COCC[C@H]([C@H]1C[C@@H]1C(=O)N[C@H]1CC(C)(C)Oc2ccc(C)cc21)N1C(=N)NC(C)(C)CC1=O` [Example 132]: the pEC50 is 8.17.

Regarding `CC1(C)CC(=O)N(C[C@H]2C[C@@H]2C(=O)N[C@H]2CC3(CCC3)Oc3ccccc32)C(=N)N1` [Example 135], the pEC50 was 6.72.

On to `Cc1cc2c(cc1Cl)[C@@H](NC(=O)[C@H]1C[C@@H]1CN1C(=N)NC(C)(C)CC1=O)CC(C)(C)O2` [Example 136], for which the pEC50 is 6.80.

Take `COCC[C@H]([C@H]1C[C@@H]1C(=O)N[C@@H]1CC(C)(C)Oc2cc(C)c(Cl)cc21)N1C(=N)NC(C)(C)CC1=O` [Example 137A]: the negative logarithm of the EC50 (pEC50) is 7.92.

Regarding `COCC[C@H]([C@H]1C[C@@H]1C(=O)N[C@H]1CC(C)(C)Oc2cc(C)c(Cl)cc21)N1C(=N)NC(C)(C)CC1=O` [Example 137B], the negative-log EC50 (pEC50) is 8.19.

`COCC[C@H]([C@H]1C[C@@H]1C(=O)N[C@H]1CC(C)(C)Oc2cc(C)c(C)cc21)N1C(=N)NC(C)(C)CC1=O` [Example 138A]: the pEC50 is 8.13.

For the compound `COCC[C@H]([C@H]1C[C@@H]1C(=O)N[C@@H]1CC(C)(C)Oc2cc(C)c(C)cc21)N1C(=N)NC(C)(C)CC1=O` [Example 138B], the negative logarithm of the EC50 (pEC50) was 7.74.

Turning to `CC1C[C@H](NC(=O)[C@H]2C[C@@H]2CN2C(=N)NC(C)(C)CC2=O)c2cc(F)ccc2O1` (some centres unmarked) [Example 139A], the negative logarithm of the EC50 (pEC50) is 7.00.

On to `CC1(C)CC(=O)N(C[C@H]2C[C@@H]2C(=O)N[C@H]2CC(C3CC3)Oc3ccccc32)C(=N)N1` (some centres unmarked) [Example 140A], for which the negative logarithm of the EC50 (pEC50) is 6.66.

Staying with this assay, now noted: Plasmodium falciparum, 72 h, Table 4; 72 hours growth, LDH readout; read-out: EC50 (Table 4).
Regarding `CCC1(CC)CC(=O)N([C@H](CCOC)[C@H]2C[C@@H]2C(=O)N[C@@H]2CC(C)(C)Oc3ccccc32)C(=N)N1` [Example 141], the negative-log EC50 (pEC50) is 8.33.

On to `CCC1(CC)CC(=O)N([C@H](CCOC)[C@H]2C[C@@H]2C(=O)N[C@H]2c3ccccc3OC(C)(C)[C@@H]2O)C(=N)N1` [Example 144], for which the negative logarithm of the EC50 (pEC50) was 6.78.

Turning to `CCC1(CC)CC(=O)N([C@H](CCOC)[C@H]2C[C@@H]2C(=O)N[C@@H]2c3ccccc3OC(C)(C)[C@H]2O)C(=N)N1` [Example 145], the pEC50 is 8.08.

Take `CCC1(CC)CC(=O)N([C@H](CCOC)[C@H]2C[C@@H]2C(=O)N[C@H]2CC(C)(C)Oc3ccc(Cl)cc32)C(=N)N1` [Example 146]: the pEC50 is 8.96.

Take `CCC1(CC)CC(=O)N([C@H](CCOC)[C@H]2C[C@@H]2C(=O)NC2CC(C)(C)Oc3c(Cl)cccc32)C(=N)N1` (some centres unmarked) [Example 148A]: the pEC50 is 8.57.

For `CCC1(CC)CC(=O)N([C@H](CCOC)[C@H]2C[C@@H]2C(=O)NC2CC(C)(C)Oc3cccc(Cl)c32)C(=N)N1` (some centres unmarked) [Example 149A], the negative-log EC50 (pEC50) is 9.00.

Regarding `CCC1(CC)CC(=O)N([C@H](CCOC)[C@H]2C[C@@H]2C(=O)NC2c3cc(Cl)ccc3OC(C)(C)[C@H]2O)C(=N)N1` (some centres unmarked) [Example 150], the pEC50 is 8.41.

Staying with this assay, now noted: Table 3; 72 hours growth, LDH readout; read-out: EC50.
Take `CC1(C)CC(=O)N(C[C@H]2C[C@@H]2C(=O)NC2CC(C)(C)Oc3ccc(OC(F)(F)F)cc32)C(=N)N1` (some centres unmarked) [Example 125B]: the pEC50 is 6.80.

As for `COCC[C@H]([C@H]1C[C@@H]1C(=O)NC1CC(C)(C)Oc2ccc(OC(F)(F)F)cc21)N1C(=N)NC(C)(C)CC1=O` (some centres unmarked) [Example 126B], the pEC50 is 8.08.

With `CC[C@]1(C)CC(=O)N([C@H](CCOC)[C@H]2C[C@@H]2C(=O)NC2CC(C)(C)Oc3ccc(OC(F)(F)F)cc32)C(=N)N1` (some centres unmarked) [Example 129B], the pEC50 is 8.60.

Take `COCC[C@H]([C@H]1C[C@@H]1C(=O)NC1CC2(CCC2)Oc2ccccc21)N1C(=N)NC(C)(C)CC1=O` (some centres unmarked) [Example 131B]: the pEC50 was 8.21.

Regarding `CC1C[C@H](NC(=O)[C@H]2C[C@@H]2CN2C(=N)NC(C)(C)CC2=O)c2cc(F)ccc2O1` (some centres unmarked) [Example 139B], the pEC50 is 6.89.

Consider `CC1(C)CC(=O)N(C[C@H]2C[C@@H]2C(=O)N[C@H]2CC(C3CC3)Oc3ccccc32)C(=N)N1` (some centres unmarked) [Example 140B], for which the negative logarithm of the EC50 (pEC50) was 6.55.

Still in this assay, the particulars now being: Table 4; 72 hours growth, LDH readout; read-out: EC50 (Table 4).
Turning to `CCC1(CC)CC(=O)N([C@H](CCOC)[C@H]2C[C@@H]2C(=O)NC2CC(C)(C)Oc3c(Cl)cccc32)C(=N)N1` (some centres unmarked) [Example 148B], the negative-log EC50 (pEC50) was 8.72.

As for `CCC1(CC)CC(=O)N([C@H](CCOC)[C@H]2C[C@@H]2C(=O)NC2CC(C)(C)Oc3cccc(Cl)c32)C(=N)N1` (some centres unmarked) [Example 149B], the negative logarithm of the EC50 (pEC50) was 8.92.
